The record followed here is patent publication US10238631B2, “Sesquiterpene derivatives and their use in inflammation or cancer treatment” (Academia Sinica, priority 2014, dated 2019).

Molecules are shown by their SMILES. “And” between values parts separate entries of the source, which are not always exact repeats. Equal entries are not always repeated. Where two headings read alike, the source gives them in different places.

The test system of series [1] is TS/A (ER+, Her2−) murine mammary cancer cells. Briefly: MTT cell viability assay, TS/A cells. The series is classed as cell-based. The conditions noted are these: Mus musculus. The essentials:
(§1)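 Cells were seeded at 2×10^3 to 1×10^4 per well overnight, then exposed to compounds for 24 h to 72 h. Viability was read by MTT at OD570 as a percentage of the 0.5% DMSO vehicle control.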

Series [2] relates to M10 normal mammary epithelial cells. Briefly: MTT cell viability assay, M10 normal cells. The series is classed as cell-based, human. The conditions noted are these: 24 h; for IC50: Homo sapiens, Epithelial cell. The essentials:
as §1

Series [3] concerns A2058 (BRAF mutation). As to the kind of experiment: MTT cell viability assay, A2058 melanoma. It counts as cell-based, human. In short, it runs like this:
(§2)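 Cells (2×10^3 to 1×10^4/well) seeded overnight, then exposed to compounds for 24 h to 72 h. Growth read by MTT colorimetry at OD570. Viability expressed as % of vehicle (0.5% DMSO) control.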
Background: Tetrazolium assays rely on reduction of a dye to a coloured formazan, in cell work by metabolically active cells.

The subject of series [4] is Melanocyte (Normal cells). Briefly: MTT cell viability assay, normal melanocytes. The series is classed as cell-based, human. The conditions noted are these: 24 h; for IC50: Homo sapiens, Melanocyte. In short, it runs like this:
as §2

Series [5] deals with U-87MG brain cancer cell line. Briefly: MTT cell viability assay, U-87MG. It counts as cell-based. The conditions noted are these: Homo sapiens, 24 h. On the procedure:
(§3) Normal or cancer cells (2×10^3 to 1×10^4 cells/well) were seeded in 96-well plate for overnight and treated with different compounds for 24 h to 72 h. Cells growth were determined by MTT-based colorimetric assays according to. Viability of the test cells treated with vehicle (0.5% DMSO) only was defined as 100% viable. Survival of cells after treatment with DETDs was calculated using the following formula: viable cell number (%)=OD570 (treated cell culture)/OD570 (vehicle control)×100.
(§4) Based on toxicity results of DET and DETDs on different breast cancer and melanoma cell lines, we selected DETD-6, -32, -35 and -39, under the consideration of structure activity relationship for evaluating their suppression effect against other cancer types of cell line with indicated tumor origin in Table 5. […] The cells were treated with compounds for 24 h and then subjected to MTT assays.

In series [6] the test system is PC6 lung cancer cell line. As to the kind of experiment: MTT cell viability assay, PC6. The series is classed as cell-based. The conditions noted are these: 24 h. On the procedure: as §3, §4
The test system of series [7] is SK-N-MC neuroepithelioma line. Briefly: MTT cell viability assay, SK-N-MC. The series is classed as cell-based. The conditions noted are these: Homo sapiens, 24 h. The method, then: as §3, §4
The subject of series [8] is NES-SA uterus cancer cell line. Briefly: MTT cell viability assay, NES-SA. The series is classed as cell-based. The note with it: 24 h. On the procedure: as §3, §4
Series [9] deals with MDA-MB-231 cell migration. Briefly: Boyden chamber migration assay. The series is classed as cell-based, human. The conditions noted are these: 24 h; for reduction of cell migration vs vehicle control: higher concentrations (DET 4 μM, DETD-35 2.5 μM, PTX 4 μM); for suppression of cell migration vs vehicle control: lower concentrations (DET 2.5 μM, DETD-35 1.25 μM, PTX 2.5 μM). The method, then: (§5) To test the anti-migratory and anti-invasive effect of DET. DETD-35 and PTX. Boyden chambers assay was carried out. The lower well of the chamber (6.5 mm diameter, […]; Costar. Cambridge, Mass., USA) was added 10% fetal bovine serum (FBS) as a chemoattractant and filled with DMEM culture medium containing vehicle (DMSO, 0.05%), DET (2.5 and 4 μM). DETD-35 (1.25 and 2.5 μM), or PTX (2.5 and 4 μM). MDA-MB-231 cells were placed into the upper chamber (5×10^4 cells per insert) with the medium containing 0.1% FBS. After 24 h incubation at 37° C. in a 5% CO2 atmosphere, non-migrating cells were scraped from the upper surface of the membrane using a cotton swab, and the migrated cells remaining in the well were fixed and stained with DAPI solution (4,6-diamidino-2-phenylindole, 1 μg/ml). The migrating cells were counted in three fields at 20× original magnifications by inverted fluorescence microscopy. To test the anti-invasive effect of the compounds, 8-μm filters were pre-coating with Matrigel (30 μg per filter) and incubated at 37° C. for 2 h, then followed the protocol of migration assay descried about.

Series [10] has as its system MDA-MB-231 cell invasion. Briefly: Boyden chamber (Matrigel) invasion assay. The series is classed as cell-based, human. The conditions noted are these: 24 h. The method, then:
as §5

Series [11] has as its system MDA-MB-231 cell motility. As to the kind of experiment: Time-lapse microscope analysis of cell motility. The conditions noted are these: 12 h, control 186. It counts as cell-based, human. On the procedure: A 12 well cell culture plate was coated with 25 μg/mL fibronectin for 1 h and then seeded with 5×10^4 MDA-MB-231 cells in DMEM containing 10% serum. Twelve hours after seeding, time-lapse microscopy experiments were performed on an Inverted Confocal Microscope (LSM 510 META) equipped with an environmental chamber with phase-contrast optics (images taken every 30 min). Using the object-tracking application of Metamorph software (Molecular Devices), an average of 12 subsequent cell centroid displacements/30 min between two consecutive images were evaluated as cell velocities of migration. In total, cell trajectories were recorded for 24 h. These assays were made in treatments with vehicle (DMSO, 0.05%), DET (2.5, 4 and 10 μM), and DETD-35 (1.25, 2.5, 4 μM) added at the beginning of the time-lapse imaging/video taping.

Series [12] relates to A375-R PLX4032-resistant melanoma tumor. As to the kind of experiment: A375-R melanoma xenograft model in NOD/SCID mice. It counts as in vivo, mouse. The note with it: 20 mg/kg i.p. alone. The method, then:
A375 and A375-R melanoma cells (3×10^6) were injected subcutaneously to the flanks of the six weeks old NOD/SCID mice. One week after the inoculation, the mice were randomized into treated groups (n=8 per group) and the treatments were started. Body weight and tumor volume of the mice were recorded every three days using formula a×b^2×0.5, where a and b represented the larger and smaller tumor diameters.
To study whether or not DETD-35 could overcome acquired resistance to BRAF inhibitor, we generated A375 cell line resistant to PLX4032 (designated A375-R) as described above. We then conducted A375-R orthotopic xenograft study.

In series [13] the test system is MDA-MB-231 cells. Briefly: Combination with gluthathione biosynthesis blockers (BSO, sulfasalazine), MTT. The conditions noted are these: for cell viability after pretreatment with BSO or sulfasalazine: 30 h pretreatment, then DET 12 μM or DETD-35 3 μM for 24 h; for combination effect with BSO: BSO at 0.5 μM, 3 μM, and above; for combination effect with sulfasalazine: sulfasalazine at 25 μM, 62 μM, and above.
Method: Briefly, cells (5×10^3 cells/well) were seeded in 96-well plates and treated with BSO at concentrations 100 μM, 45 μM, 18 μM, 7.2 μM, 2.8 μM, 1.15 μM, 461 nM, 184 nM, 74 nM and 29 nM, and sulfasalazine at concentrations 62.75 μM, 25.10 μM, 10 μM, 4 μM, 1.6 μM, 642 nM, 257 nM, 102 nM, 41 nM and 16.4 nM for 30 h, and then 12 μM DET or 3 μM DETD-35 were added in the cultural medium to treat the cells for another 24 h. Cell proliferation was measured by MIT assay.

For series [14], the system named is melanoma cell lines B16-F10, MeWo, A375, A2058, HTB-68. As to the kind of experiment: MTT cell viability assay, all melanoma cell lines. It counts as cell-based. The conditions noted are these: 24 h, read-out: IC50 values over all types of melanoma cell lines. The essentials: as §2
Setting [15] is: 24 h, read-out: IC50 on cell viability, TS/A (ER+, Her2−).
[16] abbreviates: Table 5, 24 h, read-out: IC50 viability TS/A (mouse) (Breast).

As for `C=C(C)C(=O)O[C@H]1CC2=C[C@@H](C/C(C)=C/[C@H]3OC(=O)C(=C)[C@H]13)OC2=O` [DET, deoxyelephantopin, reference compound], the IC50 in [1] (setting [15]) is 2300 nM; in series [1] (setting [16]), 2600 nM; in series [2], greater than 7500 nM; in series [3] (24 h), greater than 10000 nM; in series [3] (Homo sapiens, A2058, 24 h), greater than 10000 nM; in series [4] it was greater than 10000 nM. The IC50 in series [5] was 1000 nM; in series [6] it was 400 nM; in series [7], 510 nM; in [8], 900 nM. Moreover, the “reduction of cell migration vs vehicle control” value in [9] is 77%. In series [9], the “suppression of cell migration vs vehicle control” value is listed as 16%. Also, the “inhibition of cell invasion” value amounted to 76% in series [10] (higher concentrations (DET 4 μM, DETD-35 2.5 μM, PTX 4 μM)) and 57% in [10] (lower concentrations (DET 2.5 μM, DETD-35 1.25 μM, PTX 2.5 μM)). In addition, the migration distance in series [11] (2.5 μM) was determined as 144 μm; in [11] (4 μM), 15 μm; in [11] (10 μM), 9 μm. The “reduction of tumor mass” value in [12] turned out to be 32%. In addition, the “cell viability after pretreatment with BSO or sulfasalazine” value in [13] is given as 1% or undetectable. In addition, in series [13], the “combination effect with BSO” value was “synergistic effects”. In series [13] (DET 12 μM, DETD-35 3 μM, 24 h), the “cell viability, compound alone” value is reported as “around 70%”. The “combination effect with sulfasalazine” value in [13] is listed as “synergistic effects”.
One may read the inhibition as the change of the read-out against control, counted positive when it falls. Lower therefore signals a weak effect. One may read the viability as the share of living cells, or the viability signal relative to a control. For the molecule `C=C1C(=O)O[C@H]2CC3=C[C@@H](C/C(C)=C/[C@@H](OC(=O)Cc4cccc5ccccc45)[C@H]12)OC3=O` [DETD-35], the IC50 in series [1] (setting [15]) was 1700 nM; in series [1] (setting [16]) it was 1700 nM; in series [2], greater than 7500 nM; in series [3] (Homo sapiens, A2058, 24 h), 3100 nM; in series [4] it was greater than 10000 nM; in series [5], 340 nM. In addition, the IC50 in [6] is 340 nM; in series [7], 260 nM; in [8], 340 nM; in series [14], 1600 to 9900 nM and 2500 to 6000 nM. In addition, the “IC50 on cell viability, M10 (normal)” value in series [2] is “no detected toxicity”. For the same molecule, in series [4], the “IC50 on cell viability, Melanocyte (Normal cells)” value was “no detected toxicity”. Further, in series [9], the “reduction of cell migration vs vehicle control” value was 84%. The “suppression of cell migration vs vehicle control” value in [9] was 10%. At 2.5 µM the inhibition in series [10] (Homo sapiens, MDA-MB-231, higher concentrations (DET 4 μM, DETD-35 2.5 μM, PTX 4 μM)) was 80%. Moreover, the inhibition at 1.25 µM in [10] (Homo sapiens, MDA-MB-231, lower concentrations (DET 2.5 μM, DETD-35 1.25 μM, PTX 2.5 μM)) turned out to be 64.6%. Further, the figures for the migration distance in [11] (1.25 μM), in series [11] (2.5 μM) and in [11] (4 μM) were 70 μm, 23 μm and 3 μm, respectively. In addition, in series [12], the “reduction of tumor mass” value was found to be 46.9%. Besides, in series [13], the “cell viability after pretreatment with BSO or sulfasalazine” value is given as 1% or undetectable. The “combination effect with BSO” value in series [13] is given as “synergistic effects”. Further, the viability at 3 µM in [13] (Homo sapiens, MDA-MB-231, 24 h, read-out: cell viability, compound alone) is roughly 90%. The “combination effect with sulfasalazine” value in series [13] is “synergistic effects”.
